IC50 data for 22 compounds are collected here from US10010539B2, “Pyrazole, triazole and tetrazole orexin receptor antagonists” (MERCK SHARP & DOHME CORP., priority 2014, dated 2018).

In test [1] the target is hOXIR (orexin-1 receptor) (Homo sapiens, UniProt O43613). Nature of the test: FLIPR Ca2+ Flux Assay, orexin-1 receptor (hOXIR FLIPR). Format: cell-based. The note with it: CHO cells expressing the orexin-1 receptor (method text: rat; table head: hOXIR); agonist 70 pM Ala-6,12 human orexin-A. The procedure:
(§1) The utility of the compounds in accordance with the present invention as orexin receptor OX1R and/or OX2R antagonists may be readily determined without undue experimentation by methodology well known in the art, including the “FLIPR Ca^2+ Flux Assay” (Okumura et al., Biochem. Biophys. Res. Comm. 280:976-981, 2001). In a typical experiment the OX1 and OX2 receptor antagonistic activity of the compounds of the present invention was determined in accordance with the following experimental method. For intracellular calcium measurements, Chinese hamster ovary (CHO) cells expressing the rat orexin-1 receptor or the human orexin-2 receptor, are grown in Iscove's modified DMEM containing 2 mM L-glutamine, […], 1% hypoxanthine-thymidine supplement, 100 U/ml penicillin, 100 μg/ml streptomycin and 10% heat-inactivated fetal calf serum (FCS). The cells are seeded at 20,000 cells/well into Becton-Dickinson black 384-well clear bottom sterile plates coated with poly-D-lysine. All reagents were from GIBCO-Invitrogen Corp. The seeded plates are incubated overnight at 37° C. and 5% CO2. Ala-6,12 human orexin-A as the agonist is prepared as a 1 mM stock solution in 1% bovine serum albumin (BSA) and diluted in assay buffer (HBSS containing 20 mM HEPES, 0.1% BSA and 2.5 mM probenecid, pH7.4) for use in the assay at a final concentration of 70 pM. Test compounds are prepared as 10 mM stock solution in DMSO, then diluted in 384-well plates, first in DMSO, then assay buffer. On the day of the assay, cells are washed 3 times with 100 μl assay buffer and then incubated for 60 min (37° C., 5% CO2) in 60 μl assay buffer containing 1 μM Fluo-4AM ester, 0.02% pluronic acid, and 1% BSA. The dye loading solution is then aspirated and cells are washed 3 times with 100 μl assay buffer. 30 μl of that same buffer is left in each well. Within the Fluorescent Imaging Plate Reader (FLIPR, Molecular Devices), test compounds are added to the plate in a volume of 25 μl, incubated for 5 min and finally 25 μl of agonist is added. Fluorescence is measured for each well at 1 second intervals for 5 minutes and the height of each fluorescence peak is compared to the height of the fluorescence peak induced by 70 pM Ala-6,12 orexin-A with buffer in place of antagonist. For each antagonist, IC50 value (the concentration of compound needed to inhibit 50% of the agonist response) is determined. Alternatively, compound potency can be assessed by a radioligand binding assay (described in Bergman et. al. Bioorg. Med. Chem. Lett. 2008, 18, 1425-1430) in which the inhibition constant (Ki) is determined in membranes prepared from CHO cells expressing either the OX1 or OX2 receptor. The intrinsic orexin receptor antagonist activity of a compound which may be used in the present invention may be determined by these assays.

For a further test, the target named is human orexin-2 receptor (Homo sapiens (Human), UniProt O43614). In words: FLIPR Ca2+ Flux Assay, orexin-2 receptor (hOX2R FLIPR). Format: cell-based. As to conditions: CHO cells expressing the human orexin-2 receptor; agonist 70 pM Ala-6,12 human orexin-A. The procedure: as §1
For orientation: Calcium assays in cells follow changes in intracellular calcium, usually with a dye or a luminescent sensor.

Sequence of human orexin-2 receptor (O43614 whole entry): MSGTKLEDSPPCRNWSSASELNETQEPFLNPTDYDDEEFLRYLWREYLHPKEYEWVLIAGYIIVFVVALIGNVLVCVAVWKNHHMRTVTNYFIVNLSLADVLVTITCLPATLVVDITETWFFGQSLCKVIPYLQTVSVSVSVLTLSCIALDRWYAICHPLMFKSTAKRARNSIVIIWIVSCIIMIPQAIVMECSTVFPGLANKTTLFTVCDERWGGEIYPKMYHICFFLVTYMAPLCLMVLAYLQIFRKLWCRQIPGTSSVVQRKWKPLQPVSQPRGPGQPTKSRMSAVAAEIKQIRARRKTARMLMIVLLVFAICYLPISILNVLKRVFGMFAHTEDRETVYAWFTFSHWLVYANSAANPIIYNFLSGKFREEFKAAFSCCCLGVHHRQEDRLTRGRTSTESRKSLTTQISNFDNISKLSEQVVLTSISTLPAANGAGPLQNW

Usually IC50 stands for the concentration needed to halve the response being measured. Lower therefore signals higher potency. Take `C[C@@H]1CC[C@@H](n2ncc(C(C)(C)O)n2)CN1C(=O)c1ccccc1C1(C#N)CC1` [Example 1, 1-(2-((2R,5R)-5-(4-(2-Hydroxypropan-2-yl)-2H-1,2,3-triazol-2-yl)-2-methylpiperidine-1-carbonyl)phenyl)cyclopropanecarbonitrile]: the figures for the IC50 (in test [1]; at human orexin-2 receptor) were 1160 nM and 13.8 nM, respectively.
For `C[C@@H]1CC[C@@H](n2ncc(C(C)(C)O)n2)CN1C(=O)c1ccccc1-c1ccccc1` [Example 2, [1,1′-Biphenyl]-2-yl((2R,5R)-5-(4-(2-hydroxypropan-2-yl)-2H-1,2,3-triazol-2-yl)-2-methylpiperidin-1-yl)methanone], the IC50 in test [1] was 483 nM; on human orexin-2 receptor it was 16.2 nM.
As for `CCCc1ncccc1C(=O)N1C[C@H](n2ncc(C(C)(C)O)n2)CC[C@H]1C` [Example 3, ((2R,5R)-5-(4-(2-Hydroxypropan-2-yl)-2H-1,2,3-triazol-2-yl)-2-methylpiperidin-1-yl)(2-propylpyridin-3-yl)methanone], the IC50 is more than 10000 nM in test [1] and 1060 nM at human orexin-2 receptor.
In the same order, the values of `CCCc1ccccc1C(=O)N1C[C@H](n2ncc(C(C)(C)O)n2)CC[C@H]1C` [Example 4, ((2R,5R)-5-(4-(2-Hydroxypropan-2-yl)-2H-1,2,3-triazol-2-yl)-2-methylpiperidin-1-yl)(2-propylphenyl)methanone] are 8110 nM and 15.9 nM.
The corresponding values for `CC(C)c1ccccc1C(=O)N1C[C@H](n2ncc(C(C)(C)O)n2)CC[C@H]1C` [Example 5, ((2R,5R)-5-(4-(2-Hydroxypropan-2-yl)-2H-1,2,3-triazol-2-yl)-2-methylpiperidin-1-yl)(2-isopropylphenyl)methanone] are more than 10000 nM and 71.3 nM.
In the same order, the values of `C[C@@H]1CC[C@@H](n2ncc(C(C)(C)O)n2)CN1C(=O)c1ccccc1C1CC1` [Example 6, (2-Cyclopropylphenyl)((2R,5R)-5-(4-(2-hydroxypropan-2-yl)-2H-1,2,3-triazol-2-yl)-2-methylpiperidin-1-yl)methanone] are 2460 nM and 14.9 nM.
In the case of `C[C@@H]1CC[C@@H](n2ncc(C(C)(C)O)n2)CN1C(=O)c1cccnc1OC(F)F` [Example 7, (2-(Difluoromethoxy)pyridin-3-yl)((2R,5R)-5-(4-(2-hydroxypropan-2-yl)-2H-1,2,3-triazol-2-yl)-2-methylpiperidin-1-yl)methanone], the IC50 was more than 10000 nM in test [1] and 51.7 nM at human orexin-2 receptor.
Take `COC(=O)c1ncccc1C(=O)N1C[C@H](n2ncc(C(C)(C)O)n2)CC[C@H]1C` [Example 8, Methyl 3-((2R,5R)-5-(4-(2-hy-droxypropan-2-yl)-2H-1,2,3-triazol-2-yl)-2-methylpiperidine-1-carbonyl)picolinate]: the half-inhibitory concentration (IC50) in test [1] is more than 10000 nM; on human orexin-2 receptor, 1780 nM.
The corresponding values for `C[C@@H]1CC[C@@H](n2ncc(C(C)(C)O)n2)CN1C(=O)c1ccccc1CC(F)(F)F` [Example 9, ((2R,5R)-5-(4-(2-Hydroxypropan-2-yl)-2H-1,2,3-triazol-2-yl)-2-methylpiperidin-1-yl)(2-(2,2,2-trifluoroethyl)phenyl)methanone] are more than 10000 nM and 30 nM.
The corresponding values for `Cc1cnn(-c2ncccc2C(=O)N2C[C@H](n3ncc(C(C)(C)O)n3)CC[C@H]2C)c1` [Example 10, ((2R,5R)-5-(4-(2-Hydroxypropan-2-yl)-2H-1,2,3-triazol-2-yl)-2-methylpiperidin-1-yl)(2-(4-methyl-1H-pyrazol-1-yl)pyridin-3-yl)methanone] are more than 10000 nM and 26 nM.
The corresponding values for `C[C@@H]1CC[C@@H](n2ncc(C(C)(C)O)n2)CN1C(=O)c1ccccc1SC(F)(F)F` [Example 11, 2-{2-[(3R,6R)-6-Methyl-1-({2-[(trifluoromethyl)sulfanyl]pheny}carbonyl)piperidin-3-yl]-2H-1,2,3-triazol-4-yl}propan-2-ol] are 2550 nM and 20 nM.
Consider `C[C@@H]1CC[C@@H](n2ncc(C(C)(C)O)n2)CN1C(=O)c1cccnc1OCC(F)F` [Example 13, (2-(2,2-Difluoroethoxy)pyridin-3-yl)((2R,5R)-5-(4-(2-hydroxypropan-2-yl)-2H-1,2,3-triazol-2-yl)-2-methylpiperidin-1-yl)methanone], for which the values for the IC50 (in test [1]; at human orexin-2 receptor) were more than 10000 nM and 14.3 nM, respectively.
`C[C@@H]1CC[C@@H](n2ncc(C(C)(C)O)n2)CN1C(=O)c1cccnc1OCC(F)(F)F` [Example 14, ((2R,5R)-5-(4-(2-Hydroxypropan-2-yl)-2H-1,2,3-triazol-2-yl)-2-methylpiperidin-1-yl)(2-(2,2,2-trifluoroethoxy)pyridin-3-yl)methanone]: the IC50 worked out at 8790 nM in test [1] and 15.9 nM at human orexin-2 receptor.
In the same order, the values of `C[C@@H]1CC[C@@H](n2ncc(C(C)(C)O)n2)CN1C(=O)c1ccccc1OCC(F)(F)F` [Example 16, ((2R,5R)-5-(4-(2-Hydroxypropan-2-yl)-2H-1,2,3-triazol-2-yl)-2-methylpiperidin-1-yl)(2-(2,2,2-trifluoroethoxy)phenyl)methanone] are more than 10000 nM and 22.8 nM.
The corresponding values for `CC(C)Oc1ccccc1C(=O)N1C[C@H](n2ncc(C(C)(C)O)n2)CC[C@H]1C` [Example 17, ((2R,5R)-5-(4-(2-Hydroxypropan-2-yl)-2H-1,2,3-triazol-2-yl)-2-methylpiperidin-1-yl)(2-isopropoxyphenyl)methanone] are 3680 nM and 16.1 nM.
In the same order, the values of `C[C@@H]1CC[C@@H](n2ncc(C(C)(C)O)n2)CN1C(=O)c1ccccc1OCC(F)F` [Example 18, (2-(2,2-Difluoroethoxy)phenyl)((2R,5R)-5-(4-(2-hydroxypropan-2-yl)-2H-1,2,3-triazol-2-yl)-2-methylpiperidin-1-yl)methanone] are more than 10000 nM and 15 nM.
For `C[C@@H]1CC[C@@H](n2ncc(C(C)(C)O)n2)CN1C(=O)c1ccccc1OC(F)(F)F` [Example 19, ((2R,5R)-5-(4-(2-Hydroxypropan-2-yl)-2H-1,2,3-triazol-2-yl)-2-methylpiperidin-1-yl)(2-(trifluoromethoxy)phenyl)methanone], the IC50 in test [1] worked out at 2800 nM; at human orexin-2 receptor, 12.1 nM.
As for `COC(=O)c1ccccc1C(=O)N1C[C@H](n2ncc(C(C)(C)O)n2)CC[C@H]1C` [Example 20, Methyl 2-((2R,5R)-5-(4-(2-hydroxypropan-2-yl)-2H-1,2,3-triazol-2-yl)-2-methylpiperidine-1-carbonyl)benzoate], the IC50 is more than 10000 nM in test [1] and 24.6 nM on human orexin-2 receptor.
In the same order, the values of `C[C@@H]1CC[C@@H](n2ncc(C(C)(C)O)n2)CN1C(=O)c1ccccc1OC(F)F` [Example 21, (2-(Difluoromethoxy)phenyl)((2R,5R)-5-(4-(2-hydroxypropan-2-yl)-2H-1,2,3-triazol-2-yl)-2-methylpiperidin-1-yl)methanone] are more than 10000 nM and 18 nM.
The corresponding values for `C[C@@H]1CC[C@@H](n2ncc(C(C)(C)O)n2)CN1C(=O)c1ccccc1[C@@H]1CC1(F)F` [Example 22, 2-{2-[(3R,6R)-1-({2-[(1S)-2,2-difluorocyclopropyl]phenyl}carbonyl)-6-methylpiperidin-3-yl]-2H-1,2,3-triazol-4-yl}propan-2-ol] are 733 nM and 8.5 nM.
Turning to `C[C@@H]1CC[C@@H](n2ncc(C(C)(C)O)n2)CN1C(=O)c1ccccc1[C@H]1CC1(F)F` [Example 23, 2-{2-[(3R,6R)-1-({2-[(1R)-2,2-difluorocyclopropyl]phenyl}carbonyl)-6-methylpiperidin-3-yl]-2H-1,2,3-triazol-4-yl}propan-2-ol], the IC50 was more than 10000 nM in test [1] and 46.9 nM at human orexin-2 receptor.
For `COC(=O)c1cnn([C@@H]2CC[C@@H](C)N(C(=O)c3ccccc3-n3nccn3)C2)n1` [Example 24, Methyl 2-((3R,6R)-1-(2-(2H-1,2,3-triazol-2-yl)benzoyl)-6-methylpiperidin-3-yl)-2H-1,2,3-triazole-4-carboxylate], the half-inhibitory concentration (IC50) was more than 10000 nM in test [1] and 512 nM on human orexin-2 receptor.
